Entries after “also recorded” stand apart in the source; their conditions may differ. Like-named read-outs stand apart in the source and are kept apart here.
Columns and labels:
[1] = Dynamic vapor sorption (DVS); format: physicochemical; details: for Hygroscopicity: in words, up to about 95% relative humidity
Text: Dynamic vapor sorption data was collected on a Surface Measurement System DVS Intrinsic instrument. The samples were not dried prior to analysis. […] Data were not corrected for the initial moisture content of the sample.

[2] = Procedure: Four vials were prepared and stored at 2-8° C. or […] according to Table B2. The samples were scheduled initially to pull for testing at 3 weeks and 6 weeks time points.
For appearance, each unopened vial was visually examined for color, clumping, and flowability.
Based on the molecular weights, and expected UV response factors used in this study, the expected analytical sample concentrations were within the range of the 25HC3S sodium reference standards (0.75 mg/mL to 1.25 mg/mL as 25HC3S Sodium Salt).
Samples were prepared by pipetting 20 mL of 100% methanol into each vial and mixing well, with sonication and vortexing to fully dissolve the samples for HPLC analysis.
HPLC analysis was performed.

[3] = remark: listed apart in the source
Procedure: Angle of repose is measured as follows. Powder is poured from a funnel onto a flat surface until a cone of powder is created. The angle of repose is calculated according to the following equation: […]
The height of the cone was estimated with calipers.

[4] = 5 mL cylinder, 300 taps
Procedure: Although there are some variations in the method of determining the compressibility index and Hausner ratio, the basic procedure is to measure the unsettled apparent volume, VO, and the final tapped volume, Vf, of the powder after tapping the material until no further volume changes occur. The compressibility index and the Hausner ratio are calculated as follows: […]
Powder was carefully poured into a 5 mL glass graduated cylinder (to contain) until it was close to or at 5.0 mL. This initial volume was recorded as Vo. The graduated cylinder was tapped on a hard surface for 200 times and the volume was recorded. The cylinder was tapped 100 times more, and the final volume Vf was recorded.

| Weight gain (water uptake) in DVS ([1]; from 5% up to about 95% relative humidity) | Temperature stability [2] | % Recovery of 2-8° C./3 wk vs 60° C./1 wk; 2-8° C./5 wk vs 80° C./5 wk ([2]; 3 wk) [%] | % Recovery of 2-8° C./3 wk vs 60° C./1 wk; 2-8° C./5 wk vs 80° C./5 wk ([2]; 5 wk) [%] | X-ray powder diffraction pattern after DVS ([1]; before vs after DVS, FIG. 3) | Hygroscopicity [1] | Angle of Repose ([3]; about 2 g powder, cone of 21.14 mm diameter) [degrees] | Angle of Repose Rounded Whole Number ([3]; rounded) [degrees] | Compressibility Index [4] | Hausner Ratio [4] | Structure (SMILES) | Physical and chemical solid-state stability, comments [2] | Hygroscopicity ([1]; listed as crystalline 25HC3S choline) |
| --- | --- | --- | --- | --- | --- | --- | --- | --- | --- | --- | --- | --- |
| significant water uptake | – | – | – | – | – | – | – | – | – | C[C@H](CCCC(C)(C)O)[C@H]1CC[C@H]2[C@@H]3CC=C4C[C@@H](OS(=O)(=O)[O-])CC[C@]4(C)[C@H]3CC[C@]12C.[Na+] [crystalline 25HC3S sodium, reference compound] | – | – |
| – | good temperature stability | 100.8 | 97.3 | does not appreciably change | less hygroscopic | 34.9 | 35 | 42 | 1.72 | C[C@H](CCCC(C)(C)O)[C@H]1CC[C@H]2[C@@H]3CC=C4C[C@@H](OS(=O)(=O)[O-])CC[C@]4(C)[C@H]3CC[C@]12C.C[N+](C)(C)CCO [25HC3S choline, 25-Hydroxy-Cholest-5-En-3-Sulfate Choline] | Stable after 5 weeks at 80 °C physically and | not appreciably hygroscopic; also recorded: less hygroscopic |
